Data as given in US10906909B2, “Treatment of cognitive and mood symptoms in neurodegenerative and neuropsychiatric disorders with ALPHA5-containing GABAA receptor agonists” (UWM Research Foundation, Inc., priority 2016, dated 2021).
Values joined by “and” are separate entries in the source; they are usually repeats but may differ in a detail not shown here. Identical values can stand only once. “Also recorded” adds a separate entry of the source.

Columns and labels:
[1] = system: Female Swiss Webster mice; test: Rotarod sensorimotor / locomotor coordination; format: in vivo, mouse; details: for sensorimotor impairment on rotarod (time of fall): 40 mg/kg oral gavage, 15 rpm, 3 min, 10, 30, 60 min after dosing
Procedure: Female Swiss Webster mice (10 weeks of age) from Charles River Laboratory, WIL, MA were used for the experiments. The animals were housed under specific pathogen-free conditions, under standard conditions of humidity, temperature and a controlled 12 h light and dark cycle and had free access to food and water. The sensorimotor rotarod test was carried out 10, 30 and 60 minutes after the injection. Mice were tested on a rotarod at 15 rpm for maximum 3 min and the time of fall was recorded. Falling before the 3 minutes period of testing assesses of locomotor coordination impairment induced by the compound.
Mice (N=10/group) received a single administration via oral gavage of test compound (40 mg/kg), diazepam (5 mg/kg), or vehicle (2% polyethylene glycol, 2.5% hydroxypropylmethyl cellulose solution).

[2] = Mouse liver microsome stability assay; format: in vitro ADME; details: 10 μM compound
Procedure: (§1) Human and mouse liver microsomes were obtained fom BD Gentest.
(§2) Each evaluation included six independent assays carried out three at a time, on two different days
(§3) 2. For a total volume of Microsomal Assay Mixture (MAM) 390 μL, sufficient for seven time points, combine the following
(§4) 3. Sonicate MAM for 5 min and meanwhile thaw microsomes (20 mg/mL) (BD Gentest, Cat #452156) on ice.
(§5) 4. Aliquot 100 μL of ice cold ISTD into 7 separate 1.5 mL conical vials and label them the time points for 0, 10, 20, 40, 60, 90, and 120 min.
(§6) 5. Arrange the timer. Microsomes (Final concentration of 0.5 mg/mL) should be added to all time points except the zero time point.
(§7) 6. Add 50 μL of the MAM solution to the conical vial labelled as zero time point. Place the remaining MAM solution in the incubator (37° C.) for 5 min and initiate the reaction with addition of microsomes (8.8 μL) and record the time.
(§8) 7. At the end of each time interval remove 50 μL and add 100 μL to ISTD in conical vial, sonicate for 10 sec and spin down at 10,000 rpm for 5 minutes.
(§9) 8. Take 100 μL of supernatant and transfer to Spin-X HPLC filter tubes (Corning Incorporated, Cat #8169) and centrifuge at 13,000 rpm for 5 minutes and take 5 μL from this solution and dilute in 495 μL of LCMS grade methanol (Fischer scientific, CAS #67-56-1) in an 2 mL glass auto sampler vial (Microsolv, Cat #95025-WCV) 9. The samples are analyzed by LCMS-8040. (Shimadzu)
(§10) Calculation: From the peak area, calculate the following
(§11) The compounds are tested for the metabolic stability in the Human and Mouse Liver microsomes at 10 μM concentration.

[3] = Human liver microsome stability assay; format: in vitro ADME; details: 10 μM compound
Procedure: as §1, §2, §3, §4, §5, §6, §7, §8, §9, §10, §11

[4] = Pharmacokinetics in mice (plasma, liver, brain); details: i.p. dosing at 3 mg/kg
[5] = system: mice subjected to chronic restraint stress (CRS); test: Y-maze alternation task, chronic restraint stress (CRS) mice; format: in vivo, mouse; details: Dose 5 mg/kg
Procedure: C57/B16 mice, males and females were ordered from Jackson Laboratories at 8 weeks old and were kept in normal housing conditions (12 h light ON cycle starting at 7 am/water and food ad libitum) for one week. During this week, animals were single housed and handled to reduce the anxiety-like response toward the experimenter. To induce a working memory deficit, mice were subjected to a chronic restraint stress protocol (CRS). They were placed in a 50 ml Falcon® tube, twice a day, for 1 hour during their diurnal cycle. The time of occurrence of the stress was randomized every day to avoid predictability. CRS was not applied on testing days. Y-maze test occurred 15 hours minimum after the last stressor.
Mice were first habituated to the Y-maze apparatus and distal cues during 2 consecutive days over a 10 min free exploration session (one session per day). The next day, animals performed a training session consisting in seven successive trials separated by a 30 s inter-trial interval (ITI); during this training session, mice were familiarized with the experimental procedure (opening and closing of the doors and confinement into the goal arms). For each trial, mice remained in the start-box for a 30 s ITI. Then, the door was opened and the mouse was allowed to enter freely one of the two goal arms; the chosen arm was closed and the choice was recorded. After a 30 s confinement period into the chosen arm, the mouse was removed and brought back to the start-box for a second trial identical to the first one and this procedure was repeated over the series of trials.
The same general procedure used in the training session was implemented 24 h later, except that the ITI was lengthened to 90 s. For this experiment, animals were acutely injected i.p. with vehicle or αPAM, 30 minutes before the beginning of the test. To dissociate memory deficits from an eventual progressive loss of motivation to alternate over the series, an 8th trial was added to the series which was separated from the 7th trial by a shorter ITI (5 s). All animals failing to alternate at the 8th trial were excluded. The mean alternation rate was calculated and was expressed in percentage (number of alternation done by the animal/total number of alternation possible×100)±SEM. The percentage of alternation during the entire task is considered as an index of working memory performance (50% of being a random alternation rate). Factorial ANOVA was applied to the data to reveal differences between groups. If the ANOVA was significant for group effect (p<0.05), Scheffe post-hoc analysis were conducted to identify which groups are different from each other.
All drugs were diluted in a vehicle solution containing 85% H2O, 14% propylene glycol (Sigma Aldrich) and 1% Tween 80 (Sigma Aldrich). Working solutions were prepared at a concentration of 10 mg/mL and administered i.p. adjusted to the body weight of each animal. Doses used were either 1, 5, 10 or 20 mg/kg. For all Y maze experiments, animals were acutely injected i.p. with vehicle or αPAM, 30 minutes before the beginning of the test.

[6] = system: HEPG2; test: Cytotoxicity assay (CellTiter-Glo), HEPG2; format: cell-based, human; details: 48 hours incubation
Procedure: (§12) Human liver hepatocellular carcinoma (HEPG2) and human embryonic kidney 293 (HEK293) cell lines were purchased (ATCC) and cultured in 75 cm2 flasks (CellStar). Cells were grown in DMEM/High Glucose (Hyclone, #SH3024301) media to which non-essential amino acids (Hyclone, #SH30238.01), 10 mM HEPES (Hyclone, #SH302237.01), 5×106 units of penicillin and streptomycin (Hyclone, #SV30010), and 10% of heat inactivated fetal bovine serum (Gibco, #10082147) were added. Cells were harvested using 0.05% Trypsin (Hyclone, #SH3023601), washed with PBS, and dispensed into sterile white, optical bottom 384-well plates (NUNC, #142762). After three hours, small molecule solutions were transferred with a Tecan Freedom EVO liquid handling system equipped with a 100 nL pin tool (V&P Scientific). The controls (E)-10-(bromotriphenylphosphoranyl)decyl 4-(4-(tert-butyl)phenyl)-4-oxobut-2-enoate (400 μM in DMSO, positive control) and DMSO (negative control). The cells were incubated for 48 hours followed by the addition of CellTiter-Glo™, a luminescence-based cell viability assay (Promega, Madison, Wis.). All luminescence readings were performed on a Tecan Infinite M1000 plate reader. The assay was carried out in quadruplet with three independent runs. The data was normalized to the controls and analyzed by nonlinear regression (GraphPad Prism).

[7] = system: HEK293; test: Cytotoxicity assay (CellTiter-Glo), HEK293; format: cell-based, human; details: 48 hours incubation
Procedure: as §12

[8] = system: adult male Wistar rats; test: Spontaneous locomotor activity in rats; format: in vivo, rat; details: 10 mg/kg i.p.; for distances traveled in 5-min intervals: 60 min recording; for overall distance traveled during 60 min (spontaneous locomotor activity): vs SOL
Procedure: (FIG. 23). […] Procedure for the assessment of locomotor activity changes induced by additional ligands in rats. […] The test was performed in the apparatus consisting of four white and opaque Plexiglas chambers (40×25×35 cm) under dim red light (20 lux). Digital camera mounted above the apparatus recorded the animal activity, which was tracked and analyzed using ANY-maze Video Tracking System software (Stoelting Co, Wood Dale, Ill., USA). […] The 10 mg/kg dose of each of ligands or SOL were applied i.p. in the 10 ml/kg volume and a single rat was immediately placed in the center of the chamber. The activity was tracked for a total of 60 min. Chambers were cleaned with diluted ethanol after every trial. Statistical analysis (one-way ANOVA and post hoc SNK tests where applicable) was performed in SigmaPlot 11 software (Systat, USA).

[9] = system: rats; test: Morris water maze; format: in vivo, rat; details: diazepam 2 mg/kg, positive control
Procedure: The potential of MP-III-022 to affect cognitive performance of rats was assessed in 2 well-validated behavioral models. First, Morris water maze experiments were performed in a 2 m diameter circular pool filled to a height of 30 cm with water at 22±1° C. The escape platform (15 cm×10 cm) was submerged 2 cm below the water surface. All experimental details were as described in Savic et al. (Int. J. Neuropsychopharmacol. 2009, 12, 1179-1193). On each of the five consecutive days rats were given one swimming block, consisting of four trials. For each trial the rat was placed in the water at one of four pseudo-randomly determined starting positions. Once the rat has found and mounted the escape platform it was permitted to remain on the platform for 15 s. […] During the acquisition phase, treatments were applied once daily before the swimming block. On the sixth day, rats were given a treatment-free probe test (60 s) without the platform. The probe test was started from the novel, most distant location. Dependent variables chosen for tracking during the acquisition trials were: escape latency (s), total distance traveled (m), path efficiency (the ratio of the shortest possible path length to actual path length), % of distance swam in the peripheral annulus and mean speed (m/s). The selected parameters in the probe test were the distance swam in the target zone […] and % of the distance swam in the peripheral annulus. We tested the effects of 1, 2.5 and 10 mg/kg MP-III-022 and 2 mg/kg diazepam as control drug. The doses of MP-III-022 were selected so that they elicit a mild, moderate and strong positive modulation of α5GABAARs, respectively, in accordance with the analysis of thorough pharmacokinetic and electrophysiological data presented in Stamenic et al. (Eur. J. Pharmacol. 2016, 791, 433-443). The data from the acquisition days in the Morris water maze were averaged for each rat (total data/total number of trials per day) and analyzed using two-way ANOVA with repeated measures (factors: Treatment and Days) with Days as the repeated measure. In the case of significant interaction, separate one-way ANOVAs were conducted to assess the influence of treatment within individual levels of factor Days. The data from the probe test were assessed using one-way ANOVA.

[10] = system: rats; test: Social novelty discrimination (SND); format: in vivo, rat; details: 2.5 mg/kg diazepam (so in the source)
Procedure: The SND test compares the social investigation times of an adult rat with a familiar and a novel juvenile rat. Testing consisted of two consecutive juvenile presentations periods to an adult subject: period 1 (P1) and period 2 (P2). At the beginning of P1, one juvenile was placed into the adult home cage and the time spent by the adult investigating the juvenile (anogenital sniffing, licking, close pursuing and pawing) was recorded manually for 5 min. During P2, the same juvenile and a second, novel juvenile were placed in the cage together with the adult, and the times spent by the adult investigating each juvenile were measured independently for 3 min. A different pair of juvenile rats was presented to each adult tested. Manual scoring was conducted in a blinded manner. SND was deliberately impaired in control rats by the parametric manipulation applied, as there was 30 min delay between P1 and P2, and their SND was expected to be low. The influence of MP-III-022 (1, 2.5 or 10 mg/kg) on the thus induced impairment in SND was examined. There were five groups of rats which received one of the following treatments 20 min before P1: solvent, 1.5 mg/kg diazepam and 1, 2.5 and 10 mg/kg MP-III-022. The amount of time investigating familiar (Tf) and novel (Tn) juvenile during P2 was manually scored, and discrimination indexes (Tn−Tf/Tn+Tf) was calculated. Total exploration time during P1 and P2 was also manually recorded.

SMILES	sensorimotor impairment on rotarod (time of fall) [1]	Half-life (min) (MouseLM) [2]	% left after 2 hr. (MouseLM) [2]	Half-life (min) (HumanLM) [3]	molar concentration range reached in mouse brain tissue [4]	Alternation rate (%) [5] [%]	HEPG2 LD50 [6] [µM]	HEK293 LD50 [7] [µM]	distances traveled in 5-min intervals [8]	overall distance traveled during 60 min (spontaneous locomotor activity) [8]	half-life at 10 μM ([2]; mouse, liver microsomes, read-out: Half-life (min) (MouseLM))	% left after 2 hr. (Human LM) ([3]; 2 hr) [%]	half-life at 10 μM ([3]; human, liver microsomes, read-out: Half-life (min) (HumanLM))	spatial learning during acquisition in the water maze [9]	time exploring the familiar and the novel juvenile rat during P2 [10]	sensorimotor performance on rotarod (time of fall) ([1]; diazepam 5 mg/kg oral gavage, positive control)
C#Cc1ccc2c(c1)C(c1ccccc1F)=N[C@@H](C)c1c(C(=O)NC)ncn1-2 [MP-III-023, (S)-8-ethynyl-6-(2-fluorophenyl)-N,4-dimethyl-4H-benzo[f]imidazo[1,5-a][1,4]diazepine-3-carboxamide]	most severe motor impairment	846 ± 5	84.6% and 84.6 ± 0.2%	1790 ± 40	micromolar concentrations	62.5	>200	>200	induced sedation during nearly the whole period of recording	profound sedation						
CNC(=O)c1ncn2c1CN=C(c1ccccc1F)c1cc(Br)ccc1-2 [RV-II-04]	most severe motor impairment		73.7 ± 0.3%		micromolar concentrations	54.1	>200	>200	induced sedation during nearly the whole period of recording	profound sedation; also recorded: sedated when compared to all other groups	302 ± 33	80.2 ± 0.4	595 ± 157			
CN1C(=O)CN=C(c2ccccc2)c2cc(Cl)ccc21 [diazepam, reference compound]														spatial learning incapacitation	statistical trend	sensorimotor steadiness at 10 minutes
